# Source: patent publication US9452997B2, “Piperidine and piperazine derivatives as autotaxin inhibitors” (Merck Patent GmbH, priority 2009, dated 2016)
# Biological target: T1, Recombinant autotaxin (Homo sapiens, UniProt Q13822)
# T1 construct: made in house; host or cells: Hi5 insect cells (baculovirus)
# Experiment: Autotaxin assay (Amplex Red, LPC substrate)
# Assay type: biochemical
# Settings: % of control at 1E−05 (compound concentration); uninhibited control = 100%
# Protocol: Autotaxin activity is measured indirectly by means of Amplex Red Reagent. In this course, Amplex Red is measured as fluorogenic indicator for generated H2O2. Autotaxin converts substrate lysophosphatidylcholine (LPC) to phosphocholine and lysophosphatidylic acid (LPA). After the conversion phosphocholine is reacted with alkaline phosphatase to obtain inorganic phosphate and choline. During the next step choline is oxidized with choline oxidase to yield betaine, whereby H2O2 is generated. H2O2 reacts with Amplex Red Reagent in the presence of peroxidase (Horseradish peroxidase) in an 1:1 stochiometry and yields highly fluorescent resorufin. The generated fluorescence is measured in a reaction-dependent kinetic mode in order to enable subtraction of fluorescence signals of possible other fluorescent compounds that are not part of the reaction from total measured fluorescence.
# 1.5 μl of a standard solution or of the compounds of the invention are dissolved in 20 mM Hepes pH 7.2 with maximally 7.7% DMSO in individual concentrations. The resulting solution is pre-incubated together with 10 μl (16 ng) of highly purified recombinant autotaxin in a black 384-hole microtiter plate for 30 min at 22° C.
# Thereafter, the reaction is started through the addition of 5 μL-a-lysophosphatidyl-choline (LPC), whereby the final concentration of LPC is 75 μM. The mixture is incubated for 90 min. at 37° C. After the incubation Amplex Red Reagent, peroxidase (Horseradish peroxidase) and choline oxidase are added. The fluorescence is immediately measured at a wavelength of 612 nm with an excitation wavelength of 485 nm in a “Tecan Ultra multimode” fluorescence reader. The activity of autotaxin is indirectly calculated via the amount of detected generated H2O2.
# For IC50 analysis, ten serial 1:3 dilutions starting at 30 μM for each compound were run in duplicates.
# IC50 values were calculated on normalized data. For normalization, control wells were added to each assay plate and the signal of uninhibited control wells was set to 100%, whereas the signal inhibited by 500 μM C14 LPA, (Avanti Polar Lipids, Cat#857120P) was set to 0%. Curves were fitted and IC50 values calculated by the following model using proprietory analysis software: Y=Bottom+(100−Bottom)/(1+10^((Log IC50−X)*HillSlope)) Where X is the logarithm of concentration. Y is the response; Y starts at Bottom and goes to Top with a sigmoid shape. Material
# Microtiter plate: PS-Microplate, 384-hole, small volume, black Corning, Cat#3677
# Protein: Recombinant autotaxin (baculoviral Hi5 expression)
# Substrate: L-a-lysophosphatidyl choline (chicken egg); Avanti Polar Lipids #830071P
# Standard: C14 LPA, Avanti Polar Lipids, Cat#857120P
# Detection Reagent: Amplex Red Reagent; Invitrogen #A12222; dissolved in 1.923 ml of DMSO peroxidase Type VI-A (horseradish), Sigma #P6782; dissolved in 7.45 ml of test buffer, Choline Oxidase; Sigma #C5896; dissolved in 2.47 ml test buffer
# Detection Reagent Mix: 1:100 dilution of Amplex Red Regent in test buffer
# Test buffer: 200 mM Tris-HCl, Merck, Cat #1.08219, pH 7.9; 0.1% BSA, lipid free, Roche Cat#775835
row,% CTRL (1E−05) [%],SMILES
1,83,"O=C(Nc1ccc2[nH]nnc2c1)C1CC(=O)N(C2CCN(C(=O)OCC3CCCO3)CC2)C1 (stereo not shown) [Compound 27, 4-[4-(1H-Benzotriazol-5-ylcarbamoyl)-2-oxo-pyrrolidin-1-yl]-piperidine-1-carboxylic acid tetrahydro-furan-2-ylmethyl ester]"

# Same assay, conditions: recombinant autotaxin, LPC substrate, Amplex Red detection; values given as upper bounds
row,IC50 [µM],SMILES
1,< 1,"O=C(CCc1ccccc1O)N1CCC(C2CCN(C(=O)c3ccccc3-c3cccc(C(F)(F)F)c3)CC2)CC1 [Compound 1, 3-(2-Hydroxy-phenyl)-1-[1′-(3′-trifluoromethyl-biphenyl-2-carbonyl)-[4,4′]bipiperidinyl-1-yl]-propan-1-one]"
2,< 1,"O=C(Nc1ccc2[nH]nnc2c1)C1CC(=O)N(C2CCN(C(=O)OCc3ccc(Cl)cc3)CC2)C1 (stereo not shown) [Compound 2, 4-[4-(1H-Benzotriazol-5-ylcarbamoyl)-2-oxo-pyrrolidin-1-yl]-piperidine-1-carboxylic acid 4-chloro-benzyl ester]"
3,< 1,"O=C(Nc1ccc2[nH]nnc2c1)C1CC(=O)N(C2CCN(C(=O)CCc3ccc(C(F)(F)F)cc3)CC2)C1 (stereo not shown) [Compound 3, 5-Oxo-1-{1-[3-(4-trifluoromethyl-phenyl)-propionyl]-piperidin-4-yl}-pyrrolidine-3-carboxylic acid (1H-benzotriazol-5-yl)-amide]"
4,< 1,"O=C(Nc1ccc2[nH]nnc2c1)C1CC(=O)N(C2CCN(C(=O)OCc3cc(Cl)cc(Cl)c3)CC2)C1 (stereo not shown) [Compound 4, 4-[4-(1H-Benzotriazol-5-ylcarbamoyl)-2-oxo-pyrrolidin-1-yl]-piperidine-1-carboxylic acid 3,5-dichloro-benzyl ester]"
5,< 10,"O=C(Nc1ccc2[nH]c(=O)oc2c1)c1cncc(N2CCN(C(=O)OCc3ccc(Cl)cc3)CC2)c1 [Compound 5, 4-[5-(2-Oxo-2,3-dihydro-benzooxazol-6-ylcarbamoyl)-pyridin-3-yl]-piperazine-1-carboxylic acid 4-chloro-benzyl ester]"
6,< 30,"O=C(Nc1ccc2[nH]nnc2c1)c1cncc(N2CCN(C(=O)OCc3ccc(Cl)cc3)CC2)c1 [Compound 6, 4-[5-(1H-Benzotriazol-5-ylcarbamoyl)-pyridin-3-yl]-piperazine-1-carboxylic acid 4-chloro-benzyl ester]"
7,< 10,"O=C(NC1CCN(C2CCN(C(=O)OCc3ccc(Cl)cc3)CC2)C1)c1ccc2[nH]nnc2c1 (stereo not shown) [Compound 7, 4-{3-[(1H-Benzotriazole-5-carbonyl)-amino]-pyrrolidin-1-yl}-piperidine-1-carboxylic acid 4-chloro-benzyl ester]"
8,< 1,"O=C(NC1CCN(C2CCN(C(=O)OCc3cc(Cl)cc(Cl)c3)CC2)C1)c1ccc2[nH]nnc2c1 (stereo not shown) [Compound 9, 4-{3-[(1H-Benzotriazole-5-carbonyl)-amino]-pyrrolidin-1-yl}-piperidine-1-carboxylic acid 3,5-dichloro-benzyl ester]"
9,< 30,"O=C(Nc1ccc2[nH]nnc2c1)c1cccc(N2CCN(C(=O)OCc3ccc(Cl)cc3)CC2)c1 [Compound 10, 4-[3-(1H-Benzotriazol-5-ylcarbamoyl)-phenyl]-piperazine-1-carboxylic acid 4-chloro-benzyl ester]"
10,< 1,"Cc1ccc(-c2ccccc2C(=O)N2CCC(C3CCN(C(=O)c4ccc5[nH]nnc5c4)CC3)CC2)cc1 [Compound 11, [1′-(1H-Benzotriazole-5-carbonyl)-[4,4′]bipiperidinyl-1-yl]-(4′-methyl-biphenyl-2-yl)-methanone]"
11,< 1,"O=C(OCc1cc(Cl)cc(Cl)c1)N1CCC(C2CCN(C(=O)c3ccc4[nH]nnc4c3)CC2)CC1 [Compound 12, 1′-(1H-Benzotriazole-5-carbonyl)-[4,4′]bipiperidinyl-1-carboxylic acid 3,5-dichloro-benzyl ester]"
12,< 10,"Cc1ccc(-c2cccc(C(=O)N3CCC(C4CCN(C(=O)c5ccc6[nH]nnc6c5)CC4)CC3)c2)cc1 [Compound 13, [1′-(1H-Benzotriazole-5-carbonyl)-[4,4′]bipiperidinyl-1-yl]-(4′-methyl-biphenyl-3-yl)-methanone]"
13,< 1,"O=C(Nc1ccc2[nH]c(=O)oc2c1)C1CC(=O)N(C2CCN(C(=O)OCc3cc(Cl)cc(Cl)c3)CC2)C1 (stereo not shown) [Compound 15, 4-[2-Oxo-4-(2-oxo-2,3-dihydro-benzooxazol-6-ylcarbamoyl)-pyrrolidin-1-yl]-piperidine-1-carboxylic acid 3,5-dichloro-benzyl ester]"
14,< 10,"O=C(Nc1ccc2[nH]c(=O)oc2c1)C1CC(=O)N(C2CCN(C(=O)OCc3ccc(Cl)cc3)CC2)C1 (stereo not shown) [Compound 16, 4-[2-Oxo-4-(2-oxo-2,3-dihydro-benzooxazol-6-ylcarbamoyl)-pyrrolidin-1-yl]-piperidine-1-carboxylic acid 4-chloro-benzyl ester]"
15,< 10,"O=C(NCCc1ccccn1)C1CC(=O)N(C2CCN(C(=O)OCc3cc(Cl)cc(Cl)c3)CC2)C1 (stereo not shown) [Compound 17, 4-[2-Oxo-4-(2-pyridin-2-yl-ethylcarbamoyl)-pyrrolidin-1-yl]-piperidine-1-carboxylic acid 3,5-dichloro-benzyl ester]"
16,< 1,"O=C(OCc1cc(Cl)cc(Cl)c1)N1CCN(C2CCN(C(=O)c3ccc4[nH]nnc4c3)CC2)CC1 [Compound 19, 4-[1-(1H-Benzotriazole-5-carbonyl)-piperidin-4-yl]-piperazine-1-carboxylic acid 3,5-dichloro-benzyl ester]"
17,< 1,"O=C(OCc1cc(Cl)cc(Cl)c1)N1CCC(N2CCN(C(=O)c3ccc4[nH]nnc4c3)CC2)CC1 [Compound 20, 4-[4-(1H-Benzotriazole-5-carbonyl)-piperazin-1-yl]-piperidine-1-carboxylic acid 3,5-dichloro-benzyl ester]"
18,< 1,"O=C(CCc1ccccc1O)N1CCC(N2CCN(C(=O)c3ccccc3-c3cccc(C(F)(F)F)c3)CC2)CC1 [Compound 21, 3-(2-Hydroxy-phenyl)-1-{4-[4-(3′-trifluoromethyl-biphenyl-2-carbonyl)-piperazin-1-yl]-piperidin-1-yl}-propan-1-one]"
19,< 1,"O=C(CCc1ccc(C(F)(F)F)cc1)N1CCC(C2CCN(C(=O)c3ccc4[nH]nnc4c3)CC2)CC1 [Compound 22, 1-[1′-(1H-Benzotriazole-5-carbonyl)-[4,4′]bipiperidinyl-1-yl]-3-(4-trifluoromethyl-phenyl)-propan-1-one]"
20,< 30,"O=C(Cc1ccc(Cl)cc1)N1CCC(C2CCN(C(=O)c3ccc4[nH]nnc4c3)CC2)CC1 [Compound 23, 1-[1′-(1H-Benzotriazole-5-carbonyl)-[4,4′]bipiperidinyl-1-yl]-2-(4-chloro-phenyl)-ethanone]"
21,< 10,"Cc1nc(-c2ccc(C(F)(F)F)cc2)sc1C(=O)N1CCC(N2CC(C(=O)Nc3ccc4[nH]nnc4c3)CC2=O)CC1 (stereo not shown) [Compound 24, 1-{1-[4-Methyl-2-(4-trifluoromethyl-phenyl)-thiazole-5-carbonyl]-piperidin-4-yl}-5-oxo-pyrrolidine-3-carboxylic acid (1H-benzotriazol-5-yl)-amide]"
22,< 1,"O=C(OCc1cc(Cl)cc(Cl)c1)N1CCC(N2CCN(C(=O)c3ccc4[nH]c(=O)oc4c3)CC2)CC1 [Compound 25, 4-[4-(2-Oxo-2,3-dihydro-benzooxazole-6-carbonyl)-piperazin-1-yl]-piperidine-1-carboxylic acid 3,5-dichloro-benzyl ester]"
23,< 10,"O=C(NCCc1ccncc1)C1CC(=O)N(C2CCN(C(=O)OCc3cc(Cl)cc(Cl)c3)CC2)C1 (stereo not shown) [Compound 28, 4-[2-Oxo-4-(2-pyridin-4-yl-ethylcarbamoyl)-pyrrolidin-1-yl]-piperidine-1-carboxylic acid 3,5-dichloro-benzyl ester]"
24,< 30,"O=C(OCc1cc(Cl)cc(Cl)c1)N1CCC2(CC1)CCN(C(=O)c1ccc3[nH]nnc3c1)CC2 [Compound 29, 9-(1H-Benzotriazole-5-carbonyl)-3,9-diaza-spiro[5.5]undecane-3-carboxylic acid 3,5-dichloro-benzyl ester]"
